Source: the NIST ThermoML archive (doi:10.1021/je300670n)
Numbers after ± are expanded uncertainties.

Assays:
[1] = xn = mol fraction of the nth substance listed; conditions: 101 kPa, Liquid, Vibrating tube method
[2] = excess molar enthalpy (molar enthalpy of mixing); xn = mol fraction of the nth substance listed; conditions: 298.15 K, 101 kPa, Liquid, Flow calorimetry
[3] = refractive index (Na D-line) (dimensionless); conditions: 101.33 kPa, Liquid, Standard Abbe refractometry
[4] = Liquid; for mass density: 298.15 K, 101.33 kPa, Vibrating tube method; for vapor or sublimation pressure: Ebulliometric method (Recirculating still)

SMILES: CCOC(C)(C)CC [1,1-dimethylpropyl ethyl ether] + CCC(C)O
- mass density ([1]; 297.67 K, x1 = 0.7012): 770.2 ± 0.4 kg/m3
- mass density ([1]; 297.67 K, x1 = 0.8001): 766.9 ± 0.4 kg/m3
- mass density ([1]; 297.68 K, x1 = 0.5005): 777.9 ± 0.4 kg/m3
- mass density ([1]; 297.68 K, x1 = 0.6008): 774 ± 0.4 kg/m3
- mass density ([1]; 297.68 K, x1 = 0.899): 763.8 ± 0.5 kg/m3
- mass density ([1]; 297.69 K, x1 = 0.1011): 796.8 ± 0.4 kg/m3
- mass density ([1]; 297.69 K, x1 = 0.2007): 791.6 ± 0.4 kg/m3
- mass density ([1]; 297.69 K, x1 = 0.3008): 786.6 ± 0.4 kg/m3
- mass density ([1]; 297.69 K, x1 = 0.4013): 782 ± 0.4 kg/m3
- excess molar enthalpy ([2]; x1 = 0.1011): 0.0648 ± 0.00287 kcal/mol
- excess molar enthalpy ([2]; x1 = 0.2007): 0.123 ± 0.00406 kcal/mol
- excess molar enthalpy ([2]; x1 = 0.3008): 0.172 ± 0.00502 kcal/mol
- excess molar enthalpy ([2]; x1 = 0.4013): 0.208 ± 0.00574 kcal/mol
- excess molar enthalpy ([2]; x1 = 0.5005): 0.229 ± 0.00621 kcal/mol
- excess molar enthalpy ([2]; x1 = 0.6008): 0.236 ± 0.00645 kcal/mol
- excess molar enthalpy ([2]; x1 = 0.7012): 0.226 ± 0.00621 kcal/mol
- excess molar enthalpy ([2]; x1 = 0.8001): 0.196 ± 0.00574 kcal/mol
- excess molar enthalpy ([2]; x1 = 0.899): 0.133 ± 0.0043 kcal/mol

SMILES: CCOC(C)(C)CC [1,1-dimethylpropyl ethyl ether] + CCCCO
- mass density ([1]; 297.7 K, x1 = 0.101): 801 ± 0.4 kg/m3
- mass density ([1]; 297.7 K, x1 = 0.2005): 796.1 ± 0.4 kg/m3
- mass density ([1]; 297.7 K, x1 = 0.401): 786.6 ± 0.4 kg/m3
- mass density ([1]; 297.7 K, x1 = 0.5023): 782 ± 0.4 kg/m3
- mass density ([1]; 297.7 K, x1 = 0.902): 764.8 ± 0.5 kg/m3
- mass density ([1]; 297.71 K, x1 = 0.3022): 791.1 ± 0.4 kg/m3
- mass density ([1]; 297.71 K, x1 = 0.6005): 777.5 ± 0.4 kg/m3
- mass density ([1]; 297.71 K, x1 = 0.7009): 773.3 ± 0.4 kg/m3
- mass density ([1]; 297.71 K, x1 = 0.7999): 769.2 ± 0.4 kg/m3
- excess molar enthalpy ([2]; x1 = 0.101): 0.0285 ± 0.00151 kcal/mol
- excess molar enthalpy ([2]; x1 = 0.2005): 0.06 ± 0.00208 kcal/mol
- excess molar enthalpy ([2]; x1 = 0.3022): 0.0905 ± 0.00263 kcal/mol
- excess molar enthalpy ([2]; x1 = 0.401): 0.116 ± 0.00335 kcal/mol
- excess molar enthalpy ([2]; x1 = 0.5023): 0.135 ± 0.00382 kcal/mol
- excess molar enthalpy ([2]; x1 = 0.6005): 0.147 ± 0.00406 kcal/mol
- excess molar enthalpy ([2]; x1 = 0.7009): 0.147 ± 0.00406 kcal/mol
- excess molar enthalpy ([2]; x1 = 0.7999): 0.133 ± 0.00382 kcal/mol
- excess molar enthalpy ([2]; x1 = 0.902): 0.0913 ± 0.00311 kcal/mol

SMILES: CCCCO [butan-1-ol]
- refractive index ([3]; 298.15 K): 1.3972 ± 0.0003
- mass density [4]: 805.97 ± 0.34 kg/m3
- vapor or sublimation pressure ([4]; 345.91 K): 15.6 ± 0.4 kPa
- vapor or sublimation pressure ([4]; 358.05 K): 27.4 ± 0.4 kPa
- vapor or sublimation pressure ([4]; 359.46 K): 29.4 ± 0.4 kPa
- vapor or sublimation pressure ([4]; 366.26 K): 39.3 ± 0.4 kPa
- vapor or sublimation pressure ([4]; 369.57 K): 45.1 ± 0.4 kPa
- vapor or sublimation pressure ([4]; 372.02 K): 49.8 ± 0.4 kPa
- vapor or sublimation pressure ([4]; 374.43 K): 54.9 ± 0.4 kPa
- vapor or sublimation pressure ([4]; 376.72 K): 60.1 ± 0.4 kPa
- vapor or sublimation pressure ([4]; 378.46 K): 64.2 ± 0.4 kPa
- vapor or sublimation pressure ([4]; 380.74 K): 70.2 ± 0.4 kPa
- vapor or sublimation pressure ([4]; 382.55 K): 75.1 ± 0.4 kPa
- vapor or sublimation pressure ([4]; 384.3 K): 80.1 ± 0.5 kPa
- vapor or sublimation pressure ([4]; 385.78 K): 84.6 ± 0.5 kPa
- vapor or sublimation pressure ([4]; 390.41 K): 100 ± 0.5 kPa

SMILES: CCOC(C)(C)CC [1,1-dimethylpropyl ethyl ether]
- refractive index ([3]; 293.15 K): 1.39112 ± 0.00031
- refractive index ([3]; 298.15 K): 1.38858 ± 0.00031
- mass density [4]: 760.52 ± 0.34 kg/m3
- vapor or sublimation pressure ([4]; 324.31 K): 17.7 ± 0.4 kPa
- vapor or sublimation pressure ([4]; 331.83 K): 24 ± 0.4 kPa
- vapor or sublimation pressure ([4]; 343.83 K): 37.6 ± 0.4 kPa
- vapor or sublimation pressure ([4]; 345.82 K): 40.3 ± 0.4 kPa
- vapor or sublimation pressure ([4]; 349.21 K): 45.4 ± 0.4 kPa
- vapor or sublimation pressure ([4]; 351.71 K): 49.5 ± 0.4 kPa
- vapor or sublimation pressure ([4]; 355.12 K): 55.5 ± 0.4 kPa
- vapor or sublimation pressure ([4]; 357.39 K): 59.9 ± 0.4 kPa
- vapor or sublimation pressure ([4]; 358.01 K): 61 ± 0.4 kPa
- vapor or sublimation pressure ([4]; 358.09 K): 61.3 ± 0.4 kPa
- vapor or sublimation pressure ([4]; 359.96 K): 65.1 ± 0.4 kPa
- vapor or sublimation pressure ([4]; 362.13 K): 69.7 ± 0.4 kPa
- vapor or sublimation pressure ([4]; 364.42 K): 74.9 ± 0.4 kPa
- vapor or sublimation pressure ([4]; 366.44 K): 79.6 ± 0.4 kPa
- vapor or sublimation pressure ([4]; 367.36 K): 81.8 ± 0.4 kPa
- vapor or sublimation pressure ([4]; 368.16 K): 83.8 ± 0.4 kPa
- vapor or sublimation pressure ([4]; 373.7 K): 98.9 ± 0.5 kPa
- vapor or sublimation pressure ([4]; 374.41 K): 101 ± 0.5 kPa

SMILES: CCC(C)O (configuration not stated) [butan-2-ol]
- refractive index ([3]; 298.15 K): 1.3951 ± 0.0003
- mass density [4]: 802.71 ± 0.35 kg/m3
- vapor or sublimation pressure ([4]; 330.11 K): 15.7 ± 0.4 kPa
- vapor or sublimation pressure ([4]; 337.99 K): 23.3 ± 0.4 kPa
- vapor or sublimation pressure ([4]; 345.15 K): 32.7 ± 0.4 kPa
- vapor or sublimation pressure ([4]; 354.49 K): 49.4 ± 0.4 kPa
- vapor or sublimation pressure ([4]; 357.15 K): 55.3 ± 0.4 kPa
- vapor or sublimation pressure ([4]; 358.16 K): 57.3 ± 0.4 kPa
- vapor or sublimation pressure ([4]; 358.98 K): 59.6 ± 0.4 kPa
- vapor or sublimation pressure ([4]; 362.88 K): 69.9 ± 0.4 kPa
- vapor or sublimation pressure ([4]; 365.08 K): 76.3 ± 0.5 kPa
- vapor or sublimation pressure ([4]; 366.13 K): 79.5 ± 0.5 kPa
- vapor or sublimation pressure ([4]; 367.13 K): 82.9 ± 0.5 kPa
- vapor or sublimation pressure ([4]; 371.51 K): 98.3 ± 0.4 kPa
- vapor or sublimation pressure ([4]; 372.43 K): 100.6 ± 0.4 kPa

SMILES: CCC(C)(C)O [2-methylbutan-2-ol]
- refractive index ([3]; 298.15 K): 1.40248 ± 0.00037
- mass density [4]: 805.29 ± 0.39 kg/m3
- vapor or sublimation pressure ([4]; 334.98 K): 18.8 ± 0.4 kPa
- vapor or sublimation pressure ([4]; 344.45 K): 29.4 ± 0.4 kPa
- vapor or sublimation pressure ([4]; 351.18 K): 39.5 ± 0.4 kPa
- vapor or sublimation pressure ([4]; 354.1 K): 44.7 ± 0.4 kPa
- vapor or sublimation pressure ([4]; 356.81 K): 50.1 ± 0.4 kPa
- vapor or sublimation pressure ([4]; 358.12 K): 52.8 ± 0.4 kPa
- vapor or sublimation pressure ([4]; 359.14 K): 55 ± 0.4 kPa
- vapor or sublimation pressure ([4]; 361.21 K): 59.7 ± 0.4 kPa
- vapor or sublimation pressure ([4]; 363.43 K): 65.2 ± 0.4 kPa
- vapor or sublimation pressure ([4]; 365.23 K): 69.8 ± 0.4 kPa
- vapor or sublimation pressure ([4]; 367.1 K): 75 ± 0.5 kPa
- vapor or sublimation pressure ([4]; 368.88 K): 80.1 ± 0.5 kPa
- vapor or sublimation pressure ([4]; 371.04 K): 86.7 ± 0.5 kPa
- vapor or sublimation pressure ([4]; 375.78 K): 102.7 ± 0.5 kPa

SMILES: CCOC(C)(C)CC [1,1-dimethylpropyl ethyl ether] + CCC(C)(C)O
- mass density ([1]; 297.7 K, x1 = 0.1005): 798.8 ± 0.5 kg/m3
- mass density ([1]; 297.71 K, x1 = 0.2006): 793.2 ± 0.5 kg/m3
- mass density ([1]; 297.71 K, x1 = 0.3013): 788.2 ± 0.5 kg/m3
- mass density ([1]; 297.71 K, x1 = 0.4018): 783.4 ± 0.4 kg/m3
- mass density ([1]; 297.71 K, x1 = 0.5013): 778.9 ± 0.4 kg/m3
- mass density ([1]; 297.71 K, x1 = 0.601): 774.7 ± 0.4 kg/m3
- mass density ([1]; 297.71 K, x1 = 0.7003): 770.9 ± 0.4 kg/m3
- mass density ([1]; 297.71 K, x1 = 0.8011): 767.1 ± 0.4 kg/m3
- mass density ([1]; 297.72 K, x1 = 0.9003): 763.7 ± 0.5 kg/m3
- excess molar enthalpy ([2]; x1 = 0.1005): 0.0565 ± 0.00263 kcal/mol
- excess molar enthalpy ([2]; x1 = 0.2006): 0.107 ± 0.00359 kcal/mol
- excess molar enthalpy ([2]; x1 = 0.3013): 0.151 ± 0.0043 kcal/mol
- excess molar enthalpy ([2]; x1 = 0.4018): 0.187 ± 0.00526 kcal/mol
- excess molar enthalpy ([2]; x1 = 0.5013): 0.214 ± 0.00598 kcal/mol
- excess molar enthalpy ([2]; x1 = 0.601): 0.23 ± 0.00621 kcal/mol
- excess molar enthalpy ([2]; x1 = 0.7003): 0.232 ± 0.00621 kcal/mol
- excess molar enthalpy ([2]; x1 = 0.8011): 0.215 ± 0.00598 kcal/mol
- excess molar enthalpy ([2]; x1 = 0.9003): 0.159 ± 0.00478 kcal/mol
